Calls of active or inactive are those of the source. The rule behind the calls is not given here.
Assays:
MOLT-4 [1] = assay: Antiproliferative activity against human MOLT-4 cells assessed as […] cell proliferation at 10 uM incubated for 48 hrs by WST-1 assay relative to control; format: functional
MOLT-4 [2] = assay: Antiproliferative activity against human MOLT-4 cells assessed as […] cell proliferation at 10 uM incubated for 48 hrs in presence of 2 uM of CDDP by WST-1 assay relative to control; format: functional
Jurkat [3] = assay: Antiproliferative activity against human Jurkat cells assessed as […] cell proliferation at 10 uM incubated for 48 hrs by WST-1 assay relative to control; format: functional
Jurkat [4] = assay: Antiproliferative activity against human Jurkat cells assessed as […] cell proliferation at 10 uM incubated for 48 hrs in presence of 2 uM of CDDP by WST-1 assay relative to control; format: functional
A2780 [5] = assay: Antiproliferative activity against human A2780 cells assessed as […] cell proliferation at 10 uM incubated for 48 hrs by WST-1 assay relative to control; format: functional
A2780 [6] = assay: Antiproliferative activity against human A2780 cells assessed as […] cell proliferation at 10 uM incubated for 48 hrs in presence of 2 uM of CDDP by WST-1 assay relative to control; format: functional
MCF7 [7] = assay: Antiproliferative activity against human MCF7 cells assessed as […] cell proliferation at 10 uM incubated for 48 hrs by WST-1 assay relative to control; format: functional
MCF7 [8] = assay: Antiproliferative activity against human MCF7 cells assessed as […] cell proliferation at 10 uM incubated for 48 hrs in presence of 10 uM of CDDP by WST-1 assay relative to control; format: functional
A549 [9] = assay: Antiproliferative activity against human A549 cells assessed as […] cell proliferation at 10 uM incubated for 48 hrs by WST-1 assay relative to control; format: functional
A549 [10] = assay: Antiproliferative activity against human A549 cells assessed as […] cell proliferation at 10 uM incubated for 48 hrs in presence of 15 uM of CDDP by WST-1 assay relative to control; format: functional
SAOS-2 [11] = assay: Antiproliferative activity against human SAOS-2 cells assessed as […] cell proliferation at 10 uM incubated for 48 hrs by WST-1 assay relative to control; format: functional
SAOS-2 [12] = assay: Antiproliferative activity against human SAOS-2 cells assessed as […] cell proliferation at 10 uM incubated for 48 hrs in presence of 15 uM of CDDP by WST-1 assay relative to control; format: functional
PANC-1 [13] = assay: Antiproliferative activity against human PANC-1 cells assessed as […] cell proliferation at 10 uM incubated for 48 hrs by WST-1 assay relative to control; format: functional
PANC-1 [14] = assay: Antiproliferative activity against human PANC-1 cells assessed as […] cell proliferation at 10 uM incubated for 48 hrs in presence of 15 uM of CDDP by WST-1 assay relative to control; format: functional
HT-29 [15] = assay: Antiproliferative activity against human HT-29 cells assessed as […] cell proliferation at 10 uM incubated for 48 hrs by WST-1 assay relative to control; format: functional
HT-29 [16] = assay: Antiproliferative activity against human HT-29 cells assessed as […] cell proliferation at 10 uM incubated for 48 hrs in presence of 15 uM of CDDP by WST-1 assay relative to control; format: functional
HeLa [17] = assay: Antiproliferative activity against human HeLa cells assessed as […] cell proliferation at 10 uM incubated for 48 hrs by WST-1 assay relative to control; format: functional
1321N1 [18] = assay: Cytotoxicity against human 1321N1 cells assessed as reduction in cell viability at 15 uM incubated for 48 hrs by MTT assay; format: functional, cell-based
GBM = assay: Cytotoxicity against patient-derived human GBM cells assessed as reduction in cell viability at 15 uM incubated for 48 hrs by MTT assay; format: functional
1321N1 [19] = assay: Chemo-sensitizing activity against human 1321N1 cells at 15 uM incubated for 48 hrs in presence of TMZ by MTT assay; format: functional, cell-based
HeLa [20] = assay: Antiproliferative activity against human HeLa cells assessed as […] cell proliferation at 10 uM incubated for 48 hrs in presence of 15 uM of CDDP by WST-1 assay relative to control; format: functional

Row | Structure (SMILES) | Activity (MOLT-4 [1]) | Activity (MOLT-4 [2]) | Activity (Jurkat [3]) | Activity (Jurkat [4]) | Activity (A2780 [5]) | Activity (A2780 [6]) | Activity (MCF7 [7]) | Activity (MCF7 [8]) | Activity (A549 [9]) | Activity (A549 [10]) | Activity (SAOS-2 [11]) | Activity (SAOS-2 [12]) | Activity (PANC-1 [13]) | Activity (PANC-1 [14]) | Cell viability relative to control (HT-29 [15]) | Activity (HT-29 [16]) | Activity (HeLa [17]) | Activity (HeLa [20]) | further results
1 | CC(C)S(=O)(=O)c1ccc(-c2cnc3[nH]c(C(=O)N4CCc5ccccc5C4)cc3c2)cc1 | 71% | 57% | 71% | 57% | 71% | 57% | 71% | 57% | 71% | 57% | 71% | 57% | 71% | 57% | 71% | 57% | 71% | 57% | Activity (1321N1 [18]): Active; Activity (GBM): 50%; Activity (1321N1 [19]): Active
2 | CCN(CC)c1ccc(CNC(=O)c2c[nH]c3ncc(-c4ccc(S(=O)(=O)C(C)C)cc4)cc23)cc1 | 64% | 58% | 64% | 58% | 64% | 58% | 64% | 58% | 64% | 58% | 64% | 58% | 64% | 58% | 64% | 58% | 64% | 58% | Activity (1321N1 [18]): Active; Activity (GBM): Active
3 | CC(C)S(=O)(=O)c1ccc(-c2cc(C(=O)N3CCc4ccccc4C3)n[nH]2)cc1 | 82% | 57% | 82% | 57% | 82% | 57% | 82% | 57% | 82% | 57% | 82% | 57% | 82% | 57% | 82% | 57% | 82% | 57% | Activity (1321N1 [18]): Active; Activity (GBM): 50%; Activity (1321N1 [19]): Active
4 | CS(=O)(=O)c1ccc(-c2cc(C(=O)NCc3ccccc3)n[nH]2)cc1 | 95% | 63% | 95% | 63% | 95% | 63% | 95% | 63% | 95% | 63% | 95% | 63% | 95% | 63% | 95% | 63% | 95% | 63% | –
5 | CCN1CCN(C(=O)c2cc3cc(-c4ccc(S(C)(=O)=O)cc4)cnc3[nH]2)CC1 | 90% | 58% | 90% | 58% | 90% | 58% | 90% | 58% | 90% | 58% | 90% | 58% | 90% | 58% | 90% | 58% | 90% | 58% | –
6 | CC(C)S(=O)(=O)c1ccc(-c2cc(C(=O)Nc3ccccc3)n[nH]2)cc1 | 107% | 70% | 107% | 70% | 107% | 70% | 107% | 70% | 107% | 70% | 107% | 70% | 107% | 70% | 107% | 70% | 107% | 70% | –
7 | CC(C)S(=O)(=O)c1ccc(-c2cc(C(=O)NCc3ccccc3)n[nH]2)cc1 | 98% | 68% | 98% | 68% | 98% | 68% | 98% | 68% | 98% | 68% | 98% | 68% | 98% | 68% | 98% | 68% | 98% | 68% | –
8 | CCN1CCN(C(=O)c2c[nH]c3ncc(-c4ccc(S(C)(=O)=O)cc4)cc23)CC1 | 95% | 70% | 95% | 70% | 95% | 70% | 95% | 70% | 95% | 70% | 95% | 70% | 95% | 70% | 95% | 70% | 95% | 70% | –
9 | CS(=O)(=O)c1ccc(-c2cnc3[nH]cc(C(=O)N4CCC(c5ccccc5)CC4)c3c2)cc1 | 49% | 44% | 49% | 44% | 49% | 44% | 49% | 44% | 49% | 44% | 49% | 44% | 49% | 44% | 49% | 44% | 49% | 44% | –
10 | CCN(CC)c1ccc(CNC(=O)c2c[nH]c3ncc(-c4ccc(S(C)(=O)=O)cc4)cc23)cc1 | 76% | 59% | 76% | 59% | 76% | 59% | 76% | 59% | 76% | 59% | 76% | 59% | 76% | 59% | 76% | 59% | 76% | 59% | –
11 | CCN1CCN(C2CCN(C(=O)c3cc4cc(-c5ccc(S(C)(=O)=O)cc5)cnc4[nH]3)CC2)CC1 | 96% | 67% | 96% | 67% | 96% | 67% | 96% | 67% | 96% | 67% | 96% | 67% | 96% | 67% | 96% | 67% | 96% | 67% | –

Source: ChEMBL document CHEMBL5113478, “7-Azaindole, 2,7-diazaindole, and 1H-pyrazole as core structures for novel anticancer agents with potential chemosensitizing properties” (Eur J Med Chem, 2022)
